Results reported in the supplement of paper PMC10307832.

Key:
Assay in all cases: relative viability (nuclei count vs DMSO), 5 days (fraction); higher = more cells survive
[1] = compound: CN[C@@H]1C[C@H]2O[C@@](C)([C@@H]1OC)n1c3ccccc3c3c4c(c5c6ccccc6n2c5c31)C(=O)NC4 [Staurosporine] + CS(=O)(=O)N1CCN(Cc2cc3nc(-c4cccc5[nH]ncc45)nc(N4CCOCC4)c3s2)CC1 [Pictilisib] (partner 1 µM)
Procedure, shortened: (§1)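 Five library-drug doses in √10 steps were combined with a fixed anchor-drug dose, or a single drug was given alone, by pin tool to lung cancer cell lines in 1536-well plates the day after seeding. Nuclei were stained and counted after 5 days. Relative viability is the nuclei count in treated wells over that in vehicle wells, taken as the median of duplicate plates.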

[2] = compound: O=c1[nH]cc(F)c(=O)[nH]1 [5-Fluorouracil] + Cc1cc(Nc2cc(N3CCN(C)CC3)nc(Sc3ccc(NC(=O)C4CC4)cc3)n2)n[nH]1 [Tozasertib] (partner 0.1 µM)
Procedure, shortened: as §1

Sulindac + Tozasertib = compound: CC1=C(CC(=O)O)c2cc(F)ccc2/C1=C\c1ccc([S+](C)[O-])cc1 [Sulindac] + Cc1cc(Nc2cc(N3CCN(C)CC3)nc(Sc3ccc(NC(=O)C4CC4)cc3)n2)n[nH]1 [Tozasertib] (partner 0.1 µM)
Procedure, shortened: as §1

[3] = compound: CN[C@@H]1C[C@H]2O[C@@](C)([C@@H]1OC)n1c3ccccc3c3c4c(c5c6ccccc6n2c5c31)C(=O)NC4 [Staurosporine] + CC(=O)Nc1cccc(-n2c(=O)n(C3CC3)c(=O)c3c(Nc4ccc(I)cc4F)n(C)c(=O)c(C)c32)c1 [Trametinib] (partner 0.02 µM)
Procedure, shortened: as §1

Cell Line: UMC-11
- relative viability ([1]; first compound 0.005 µM): 0.841
- relative viability ([1]; first compound 0.01581 µM): 0.115
- relative viability ([1]; first compound 0.05 µM): 0.207
- relative viability ([1]; first compound 0.1581 µM): 0.101
- relative viability ([1]; first compound 0.5 µM): 0.0718
- relative viability ([2]; first compound 0.02 µM): 0.183
- relative viability ([2]; first compound 0.2 µM): 0.188
- relative viability ([2]; first compound 0.6325 µM): 0.203
- relative viability ([2]; first compound 2 µM): 0.188
- relative viability (Sulindac + Tozasertib; first compound 0.08 µM): 0.204
- relative viability (Sulindac + Tozasertib; first compound 0.253 µM): 0.192
- relative viability (Sulindac + Tozasertib; first compound 0.8 µM): 0.228
- relative viability (Sulindac + Tozasertib; first compound 2.53 µM): 0.2
- relative viability (Sulindac + Tozasertib; first compound 8 µM): 0.204
- relative viability ([3]; first compound 0.005 µM): 0.444
- relative viability ([3]; first compound 0.01581 µM): 0.0989
- relative viability ([3]; first compound 0.05 µM): 0.212
- relative viability ([3]; first compound 0.1581 µM): 0.121
- relative viability ([3]; first compound 0.5 µM): 0.0798
